According to US20120029187A1, “HALOALKYLSULFONANILIDE DERIVATIVE” (Nissan Chemical Industries, Ltd., priority 2009, published 2012):

Tests used:
Assay type in all cases: in vivo
barnyardgrass [1] = assay: Test Example 1: herbicidal effects in preemergence treatment under submerged conditions; details: dose 2.52 g/a
How it was run: (§1)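 Score 0–5 by mortality (5: ≥90%; 0: <5%), read 3 weeks post-application. Paddy-type cups: alluvial soil under 4 cm water, weeds seeded plus transplanted 2.5-leaf rice; diluted EC dosed onto water surface same day as sowing, g/a basis; greenhouse 25 to 30° C.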

bulrush [2] = assay: as above; details: dose 2.52 g/a
How it was run: as §1

ducksalad [3] = assay: as above; details: dose 2.52 g/a
How it was run: as §1

transplanted rice = assay: Test Example 1: preemergence treatment under submerged conditions, effect on crop; details: dose 2.52 g/a
How it was run: as §1

barnyardgrass [4] = assay: Test Example 2: herbicidal effects during the vegetation period under submerged conditions; details: treatment during the vegetation period under submerged conditions; dose 2.52 g/a
How it was run: (§2)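 Barnyardgrass, bulrush and ducksalad were co-sown in alluvial soil flooded to 4 cm and grown in a greenhouse at 25 to 30° C. At the 1- or 2-leaf stage, water-diluted emulsifiable concentrates went onto the water surface at set doses (g/a). Herbicidal effect was scored three weeks later on a graded scale.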

bulrush [5] = assay: as above; details: treatment during the vegetation period under submerged conditions; dose 2.52 g/a
How it was run: as §2

ducksalad [6] = assay: as above; details: treatment during the vegetation period under submerged conditions; dose 2.52 g/a
How it was run: as §2

Italian ryegrass [7] = assay: Test Example 3: herbicidal effects in soil treatment; details: dose 6.3 g/a
How it was run: (§3)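 Seeds were sown in sterilized diluvial soil and covered with about 1.5 cm of soil. Compounds, formulated as emulsifiable concentrates and diluted with water, were sprayed evenly over the soil surface at set doses in g/a. Herbicidal effect was scored on a rating scale three weeks later.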

barnyardgrass [8] = assay: as above; details: dose 6.3 g/a
How it was run: as §3

common chickweed [9] = assay: as above; details: dose 6.3 g/a
How it was run: as §3

common lambsquater [10] = assay: as above; details: dose 6.3 g/a
How it was run: as §3

common ragweed [11] = assay: as above; details: dose 6.3 g/a
How it was run: as §3

giant foxtail [12] = assay: as above; details: dose 6.3 g/a
How it was run: as §3

large crabgrass [13] = assay: as above; details: dose 6.3 g/a
How it was run: as §3

posumbu knotweed [14] = assay: as above; details: dose 6.3 g/a
How it was run: as §3

redroot pigweed [15] = assay: as above; details: dose 6.3 g/a
How it was run: as §3

velvetleaf [16] = assay: as above; details: dose 6.3 g/a
How it was run: as §3

water foxtail [17] = assay: as above; details: dose 6.3 g/a
How it was run: as §3

wild oat [18] = assay: as above; details: dose 6.3 g/a
How it was run: as §3

Italian ryegrass [19] = assay: Test Example 4: herbicidal effect in foliage treatment; details: dose 6.3 g/a, three weeks after application
How it was run: (§4)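 Foliar spray, post-emergence: 14-day-old greenhouse plants (25–30° C, diluvial soil) treated with water-diluted EC at set g/a doses; visual herbicidal score at 3 wk post-application.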

barnyardgrass [20] = assay: as above; details: dose 6.3 g/a, three weeks after application
How it was run: as §4

beadstraw = assay: as above; details: dose 6.3 g/a, three weeks after application
How it was run: as §4

common chickweed [21] = assay: as above; details: dose 6.3 g/a, three weeks after application
How it was run: as §4

common lambsquater [22] = assay: as above; details: dose 6.3 g/a, three weeks after application
How it was run: as §4

common ragweed [23] = assay: as above; details: dose 6.3 g/a, three weeks after application
How it was run: as §4

giant foxtail [24] = assay: as above; details: dose 6.3 g/a, three weeks after application
How it was run: as §4

large crabgrass [25] = assay: as above; details: dose 6.3 g/a, three weeks after application
How it was run: as §4

posumbu knotweed [26] = assay: as above; details: dose 6.3 g/a, three weeks after application
How it was run: as §4

redroot pigweed [27] = assay: as above; details: dose 6.3 g/a, three weeks after application
How it was run: as §4

velvetleaf [28] = assay: as above; details: dose 6.3 g/a, three weeks after application
How it was run: as §4

water foxtail [29] = assay: as above; details: dose 6.3 g/a, three weeks after application
How it was run: as §4

wild oat [30] = assay: as above; details: dose 6.3 g/a, three weeks after application
How it was run: as §4

Row | SMILES | A: barnyardgrass, herbicidal effect (evaluation scale 0-5) (barnyardgrass [1]) | B: bulrush, herbicidal effect (evaluation scale 0-5) (bulrush [2]) | C: ducksalad, herbicidal effect (evaluation scale 0-5) (ducksalad [3]) | a: transplanted rice, effect on crop (evaluation scale 0-5) (transplanted rice) | A: barnyardgrass, herbicidal effect (evaluation scale 0-5) (barnyardgrass [4]) | B: bulrush, herbicidal effect (evaluation scale 0-5) (bulrush [5]) | C: ducksalad, herbicidal effect (evaluation scale 0-5) (ducksalad [6]) | H: Italian ryegrass, herbicidal effect (evaluation scale 0-5) (Italian ryegrass [7]) | A: barnyardgrass, herbicidal effect (evaluation scale 0-5) (barnyardgrass [8]) | N: common chickweed, herbicidal effect (evaluation scale 0-5) (common chickweed [9]) | L: common lambsquater, herbicidal effect (evaluation scale 0-5) (common lambsquater [10]) | J: common ragweed, herbicidal effect (evaluation scale 0-5) (common ragweed [11]) | E: giant foxtail, herbicidal effect (evaluation scale 0-5) (giant foxtail [12]) | D: large crabgrass, herbicidal effect (evaluation scale 0-5) (large crabgrass [13]) | M: posumbu knotweed, herbicidal effect (evaluation scale 0-5) (posumbu knotweed [14]) | K: redroot pigweed, herbicidal effect (evaluation scale 0-5) (redroot pigweed [15]) | I: velvetleaf, herbicidal effect (evaluation scale 0-5) (velvetleaf [16]) | G: water foxtail, herbicidal effect (evaluation scale 0-5) (water foxtail [17]) | F: wild oat, herbicidal effect (evaluation scale 0-5) (wild oat [18]) | H: Italian ryegrass, herbicidal effect (Italian ryegrass [19]) | also measured
1 | O=C1CCOCN1Cc1ccccc1NS(=O)(=O)C(F)(F)F [II-1] | 5 (mortality of 90% or above (nearly complete death)) | 5 (mortality of 90% or above (nearly complete death)) | 5 (mortality of 90% or above (nearly complete death)) | 3 (mortality of at least 40% and less than 70%) | 5 (mortality of 90% or above (nearly complete death)) | 5 (mortality of 90% or above (nearly complete death)) | 5 (mortality of 90% or above (nearly complete death)) | 3 (mortality of at least 40% and less than 70%) | 5 (mortality of 90% or above (nearly complete death)) | 5 (mortality of 90% or above (nearly complete death)) | 5 (mortality of 90% or above (nearly complete death)) | 5 (mortality of 90% or above (nearly complete death)) | 5 (mortality of 90% or above (nearly complete death)) | 5 (mortality of 90% or above (nearly complete death)) | 1 (mortality of at least 5% and less than 20%) | 1 (mortality of at least 5% and less than 20%) | 5 (mortality of 90% or above (nearly complete death)) | 5 (mortality of 90% or above (nearly complete death)) | 0 (mortality of less than 5% (almost ineffective)) | 4 (mortality of at least 70% and less than 90%) | A: barnyardgrass, herbicidal effect (barnyardgrass [20]): 5 (mortality of 90% or above (nearly complete death)); O: beadstraw, herbicidal effect (beadstraw): 4 (mortality of at least 70% and less than 90%); N: common chickweed, herbicidal effect (common chickweed [21]): 4 (mortality of at least 70% and less than 90%); L: common lambsquater, herbicidal effect (common lambsquater [22]): 4 (mortality of at least 70% and less than 90%); J: common ragweed, herbicidal effect (common ragweed [23]): 4 (mortality of at least 70% and less than 90%); E: giant foxtail, herbicidal effect (giant foxtail [24]): 5 (mortality of 90% or above (nearly complete death)); D: large crabgrass, herbicidal effect (large crabgrass [25]): 5 (mortality of 90% or above (nearly complete death)); M: posumbu knotweed, herbicidal effect (posumbu knotweed [26]): 0 (mortality of less than 5% (almost ineffective)); K: redroot pigweed, herbicidal effect (redroot pigweed [27]): 0 (mortality of less than 5% (almost ineffective)); I: velvetleaf, herbicidal effect (velvetleaf [28]): 5 (mortality of 90% or above (nearly complete death)); G: water foxtail, herbicidal effect (water foxtail [29]): 5 (mortality of 90% or above (nearly complete death)); F: wild oat, herbicidal effect (wild oat [30]): 1 (mortality of at least 5% and less than 20%)
2 | CCOC(=O)N(c1ccccc1CN1COCCC1=O)S(=O)(=O)C(F)(F)F [II-2] | 5 (mortality of 90% or above (nearly complete death)) | 5 (mortality of 90% or above (nearly complete death)) | 5 (mortality of 90% or above (nearly complete death)) | 1 (mortality of at least 5% and less than 20%) | 5 (mortality of 90% or above (nearly complete death)) | 5 (mortality of 90% or above (nearly complete death)) | 4 (mortality of at least 70% and less than 90%) | 4 (mortality of at least 70% and less than 90%) | 5 (mortality of 90% or above (nearly complete death)) | 5 (mortality of 90% or above (nearly complete death)) | 5 (mortality of 90% or above (nearly complete death)) | 5 (mortality of 90% or above (nearly complete death)) | 5 (mortality of 90% or above (nearly complete death)) | 5 (mortality of 90% or above (nearly complete death)) | 1 (mortality of at least 5% and less than 20%) | 0 (mortality of less than 5% (almost ineffective)) | 5 (mortality of 90% or above (nearly complete death)) | 5 (mortality of 90% or above (nearly complete death)) | 0 (mortality of less than 5% (almost ineffective)) | 4 (mortality of at least 70% and less than 90%) | A: barnyardgrass, herbicidal effect (barnyardgrass [20]): 5 (mortality of 90% or above (nearly complete death)); O: beadstraw, herbicidal effect (beadstraw): 4 (mortality of at least 70% and less than 90%); N: common chickweed, herbicidal effect (common chickweed [21]): 3 (mortality of at least 40% and less than 70%); L: common lambsquater, herbicidal effect (common lambsquater [22]): 4 (mortality of at least 70% and less than 90%); J: common ragweed, herbicidal effect (common ragweed [23]): 4 (mortality of at least 70% and less than 90%); E: giant foxtail, herbicidal effect (giant foxtail [24]): 5 (mortality of 90% or above (nearly complete death)); D: large crabgrass, herbicidal effect (large crabgrass [25]): 5 (mortality of 90% or above (nearly complete death)); M: posumbu knotweed, herbicidal effect (posumbu knotweed [26]): 3 (mortality of at least 40% and less than 70%); K: redroot pigweed, herbicidal effect (redroot pigweed [27]): 0 (mortality of less than 5% (almost ineffective)); I: velvetleaf, herbicidal effect (velvetleaf [28]): 5 (mortality of 90% or above (nearly complete death)); G: water foxtail, herbicidal effect (water foxtail [29]): 5 (mortality of 90% or above (nearly complete death)); F: wild oat, herbicidal effect (wild oat [30]): 0 (mortality of less than 5% (almost ineffective))
